In patent publication US20070286822A1, “Compounds for the Treatment of Periodontal Disease” (ANACOR PHARMACEUTICALS INC., priority 2006, published 2007):

Legend:
[1] = test system: TNF-α; experiment: Pro-inflammatory cytokines: THP-1 cells, LPS, TNF-α; type: cell-based; details: Homo sapiens, 24 hr, read-out: TNF-α (anti-inflammatory data, pro-inflammatory cytokine)
Description: (§1) Anti-inflammatory data for 3-hydroxypyridine-2-carbonyloxy-bis(3-chloro-4-methylphenyl)-borane
(§2) Pro-inflammatory cytokines: THP-1 cells, LPS@ […], 24 hr

[2] = test system: IL-1β; experiment: Pro-inflammatory cytokines: THP-1 cells, LPS, IL-1β; type: cell-based; details: Homo sapiens, 24 hr, read-out: IL-1β (anti-inflammatory data, pro-inflammatory cytokine)
Description: as §1, §2

[3] = test system: IL-6; experiment: Pro-inflammatory cytokines: THP-1 cells, LPS, IL-6; type: cell-based; details: Homo sapiens, 24 hr, read-out: IL-6 (anti-inflammatory data, pro-inflammatory cytokine)
Description: as §1, §2

[4] = test system: IL-8; experiment: Pro-inflammatory cytokines: THP-1 cells, LPS, IL-8; type: cell-based; details: Homo sapiens, 24 hr, read-out: IL-8 (anti-inflammatory data, pro-inflammatory cytokine)
Description: as §1, §2

[5] = test system: IFN-g; experiment: TH1 cytokines: PBMC, PHA, IFN-g; type: cell-based; details: 24 h, read-out: IFN-g (anti-inflammatory data, TH1 cytokine)
Description: as §1
(§3) TH1 cytokines: PBMC, PHA@ […], 24 h

[6] = test system: IL-2; experiment: TH1 cytokines: PBMC, PHA, IL-2; type: cell-based; details: 24 h, read-out: IL-2 (anti-inflammatory data, TH1 cytokine)
Description: as §1, §3

[7] = test system: IL-4; experiment: TH2 cytokines: PBMC, PHA, IL-4; type: cell-based; details: 24 h, read-out: IL-4 (anti-inflammatory data, TH2 cytokine)
Description: as §1
(§4) TH2 cytokines: PBMC, PHA@ […], 24 h

[8] = test system: IL-5; experiment: TH2 cytokines: PBMC, PHA, IL-5; type: cell-based; details: 24 h, read-out: IL-5 (anti-inflammatory data, TH2 cytokine)
Description: as §1, §4

[9] = test system: IL-10; experiment: TH2 cytokines: PBMC, PHA, IL-10; type: cell-based; details: 24 h, read-out: IL-10 (anti-inflammatory data, TH2 cytokine)
Description: as §1, §4

[10] = test system: IL-13; experiment: TH2 cytokines: PBMC, PHA, IL-13; type: cell-based; details: 24 h, read-out: IL-13 (anti-inflammatory data, TH2 cytokine)
Description: as §1, §4

[11] = test system: IL-3; experiment: Regulatory cytokine: PBMC, PHA, IL-3; type: cell-based; details: 24 h, read-out: IL-3 (anti-inflammatory data, regulatory cytokine)
Description: as §1
Regulatory cytokine: PBMC, PHA@ […], 24 h

melting point | SMILES | further results
– | Cc1ccc(B(OC(=O)c2ncccc2O)c2ccc(C)c(Cl)c2)cc1Cl [3-hydroxypyridine-2-carbonyloxy-bis(3-chloro-4-methylphenyl)-borane] | IC50 [1]: 2.7 µM; IC50 [2]: 1 µM; IC50 [3]: 5.3 µM; IC50 [4]: 9.6 µM; IC50 [5]: > 25 µM; IC50 [6]: > 25 µM; IC50 [7]: > 25 µM; IC50 [8]: 9.3 µM; IC50 [9]: 14.5 µM; IC50 [10]: > 10 µM; IC50 [11]: > 10 µM
135 to 141 °C | N#CCCSc1cn(-c2ccc3c(c2)B(O)OC3)c2ccccc12 [C67, 3-(1-(1-hydroxy-1,3-dihydrobenzo[c][1,2]oxaborol-6-yl)-1H-indol-3-ylthio)propanenitrile] | –
120 to 124 °C | COc1ccc2c(ccn2-c2ccc3c(c2)B(O)OC3)c1 [C68, 6-(5-methoxy-1H-indol-1-yl)benzo[c][1,2]oxaborol-1(3H)-ol] | –
185 to 189 °C | OB1OCc2cc3c(cc21)OCO3 [C69, 5,6-methylenedioxybenzo[c][1,2]oxaborol-1(3H)-ol] | –
142 to 145 °C | Nc1cc2c(cc1F)COB2O [C70, 6-amino-5-fluorobenzo[c][1,2]oxaborol-1(3H)-ol] | –
159 to 164 °C | OB1OCc2cc(F)c(NCc3ccccc3)cc21 [C71, 6-(benzylamino)-5-fluorobenzo[c][1,2]oxaborol-1(3H)-ol] | –
135 to 141 °C | COc1ccc2c(c1)c(Sc1ccccc1)cn2-c1ccc2c(c1)B(O)OC2 [C72, 6-(5-methoxy-3-(phenylthio)-1H-indol-1-yl)benzo[c][1,2]oxaborol-1(3H)-ol] | –
149 to 154 °C | COc1ccc2c(c1)c(SCCC#N)cn2-c1ccc2c(c1)B(O)OC2 [C73, 3-(1-(1-hydroxy-1,3-dihydrobenzo[c][1,2]oxaborol-6-yl)-5-methoxy-1H-indol-3-ylthio)propanenitrile] | –
148 to 153 °C | N#Cc1ccc(Oc2cccc3c2B(O)OC3)cc1 [C74, 4-(1-hydroxy-1,3-dihydrobenzo[c][1,2]oxaborol-7-yloxy)benzonitrile] | –
149 to 154 °C | OB1OCc2ccc(-n3ccc4cc(Cl)ccc43)cc21 [C75, 6-(5-chloro-1H-indol-1-yl)benzo[c][1,2]oxaborol-1(3H)-ol] | –
> 225 °C | N#CCCSc1cn(-c2ccc3c(c2)B(O)OC3)c2ccc(Cl)cc12 [C76, 3-(5-chloro-1-(1-hydroxy-1,3-dihydrobenzo[c][1,2]oxaborol-6-yl)-1H-indol-3-ylthio)propanenitrile] | –
126 to 133 °C | OB1OCc2ccc(NCc3ccccc3)cc21 [C77, 6-(benzylamino)benzo[c][1,2]oxaborol-1(3H)-ol] | –
115 to 123 °C | OB1OCc2ccc(N(Cc3ccccc3)Cc3ccccc3)cc21 [C78, 6-(dibenzylamino)benzo[c][1,2]oxaborol-1(3H)-ol] | –
145 to 151 °C | OB1OCc2ccc(-n3cc(Sc4ccccc4)c4cc(Cl)ccc43)cc21 [C80, 6-(5-chloro-3-(phenylthio)-1H-indol-1-yl)benzo[c][1,2]oxaborol-1(3H)-ol] | –
120 to 124 °C | OB1OCc2cccc(F)c21 [C86, 7-fluorobenzo[c][1,2]oxaborol-1(3H)-ol] | –
98 to 105 °C | OB1OCc2ccc(Oc3ccc(C(F)(F)F)cc3)cc21 [C87, 6-(4-(trifluoromethyl)phenoxy)benzo[c][1,2]oxaborol-1(3H)-ol] | –
157 to 161 °C | OB1OCc2ccc(Sc3ccc(Cl)cc3)cc21 [C88, 6-(4-chlorophenylthio)benzo[c][1,2]oxaborol-1(3H)-ol] | –
154 to 161 °C | [O-][S+](c1ccc(Cl)cc1)c1ccc2c(c1)B(O)OC2 (centres unmarked) [C89, 6-(4-chlorophenylsulfinyl)benzo[c][1,2]oxaborol-1(3H)-ol] | –
157 to 163 °C | O=S(=O)(c1ccc(Cl)cc1)c1ccc2c(c1)B(O)OC2 [C90, 6-(4-chlorophenylsulfonyl)benzo[c][1,2]oxaborol-1(3H)-ol] | –
142 to 152 °C | O=S(=O)(c1ccccc1)N(c1ccc2c(c1)COB2O)S(=O)(=O)c1ccccc1 [C91, N-(1-hydroxy-1,3-dihydrobenzo[c][1,2]oxaborol-5-yl)-N-(phenylsulfonyl)benzenesulfonamide] | –
111 to 113 °C | OB1OCc2ccc(Sc3ccc(C(F)(F)F)cc3)cc21 [C92, 6-(4-(trifluoromethyl)phenylthio)benzo[c][1,2]oxaborol-1(3H)-ol] | –
79 to 88 °C | [O-][S+](c1ccc(C(F)(F)F)cc1)c1ccc2c(c1)B(O)OC2 (centres unmarked) [C93, 6-(4-(trifluoromethyl)phenylsulfinyl)benzo[c][1,2]oxaborol-1(3H)-ol] | –
117 to 120 °C | CSc1ccc(Sc2ccc3c(c2)B(O)OC3)cc1 [C94, 6-(4-(methylthio)phenylthio)benzo[c][1,2]oxaborol-1(3H)-ol] | –
139 to 144 °C | Cc1ccc(Sc2ccc3c(c2)B(O)OC3)cc1 [C95, 6-(p-tolylthio)benzo[c][1,2]oxaborol-1(3H)-ol] | –
147 to 150 °C | N#Cc1cccc(COc2ccc3c(c2)COB3O)c1 [C96, 3-((1-hydroxy-1,3-dihydrobenzo[c][1,2]oxaborol-5-yloxy)methyl)benzonitrile] | –
33 to 35 °C | Fc1ccc2c(c1)COB2c1ccsc1 [compound 13, 1,3-Dihydro-5-fluoro-1-(thiophen-3-yl)-2,1-benzoxaborole] | –
51 to 53 °C | Cc1cscc1B1OCc2cc(F)ccc21 [compound 14, 1,3-Dihydro-5-fluoro-1-(4-methylthiophen-3-yl)-2,1-benzoxaborole] | –
210 to 212 °C | Fc1ccc2c(c1)COB2c1cccnc1 [compound 15, 3-(1,3-Dihydro-5-fluoro-2,1-benzoxaborol-1-yl)pyridine] | –
